Laboratory results as given in patent US7173063B1, “Topoisomerase poisons for the treatment of proliferative disorders” (Fred Hutchinson Cancer Research Center, priority 2000, dated 2007).

How the values were obtained:
Rat1a fibroblasts = assay: Effect of exposure time on toxicity in Rat1a fibroblasts; assay type: cell-based, rat; conditions: for toxicity with a two hour exposure: additional experiments; for toxicity of four hour versus six hour exposure: total incubation 96 hours
Protocol: (§1) Cells were plated at a density of 500 cells per well in opaque 96 well plates (Packard) in a volume of 135 μL per well of the appropriate media. The plates were incubated overnight to allow cell adherence. Seven two-fold dilutions of the test compounds were added in a volume of 15 μL per well in triplicate, and 15 μL of media containing an appropriate concentration of DMSO was added to control wells in triplicate. Plates were incubated at 37° C. for 96 hours. The media was then replaced with 100 μL per well of the appropriate media containing 2 μCi/mL of (methyl-^3H) thymidine (Amersham Pharmacia Biotech), then plates were incubated for a further 24 hours at 37° C. Cells were washed three times with PBS, then 100 μL per well of scintillant was added (Microscint 20, Packard), and sealed plates were counted in a microplate reader (Packard Topcount). For suspension chicken cells, (methyl-^3H) thymidine was added directly to the drug-containing media at a concentration of 20 μCi/mL (comprising one tenth of the media volume) and incubated overnight. The suspension cells were transferred to a UniFilter GF/C plate (Packard) and washed with PBS in a plate washer (Packard). After drying, 25 μL per well of scintillant (Microscint 20, Packard) was added, and sealed plates were counted. Toxicity is expressed as a percentage of the control counts. For experiments involving shorter exposures to compounds, cells were grown in the presence of compound for the appropriate time, then the media was replaced with fresh drug-free media, and incubation continued for the remainder of 96 hours, followed by the normal tritiated thymidine uptake and washing protocol.

[1] = tested on: yeast lacking Ku70 (encoded by the HDF1 gene); assay: Yeast toxicity in NHEJ-deficient strain lacking Ku70 (hdf1); assay type: cell-based
Protocol: Yeast toxicity assays were performed essentially as follows: Exponentially growing cultures of the appropriate strains were diluted in synthetic complete media to a concentration of 7.4×10^4 cells/mL, and aliquots (135 μL) were transferred to each well of clear flat-bottomed 96 well plates. Compounds were added in duplicate or triplicate as 15 μL of the appropriate dilution in 5% DMSO. A 15 μL portion of 5% DMSO was added to control wells. Assay plates were incubated at 30° C. for approximately seven generations growth in solvent control wells (as monitored by OD660, typically 21–24 hours), then the OD660 of the cultures was measured in a microplate reader (Bio-Tek). Cell growth (OD660) in treated wells was plotted as a percentage of the growth in at least four averaged solvent control wells for the same strain. Camptothecin sodium salt (camptothecin Na) was the agent used in all yeast assays as standard.
The sensitivity of yeast lacking Ku70 (encoded by the HDF1 gene) to camptothecin Na, compounds Ia and IIa, has now been examined. […] Thus the NHEJ pathway is not important for the repair of lesions induced by these compounds in yeast.

[2] = tested on: chicken pre-B cell line DT40; assay: Thymidine incorporation toxicity assay in isogenic DT40 cells with or without KU70, RAD52, RAD54; assay type: cell-based; conditions: for effect of loss of KU70 on toxicity: DT40 with or without KU70; for effect of loss of homologous recombination (RAD52 or RAD54) on toxicity: DT40 with or without RAD52 or RAD54
Protocol: Cell lines were grown at 37° C. in an atmosphere of 5% CO2. The chicken pre-B cell line DT40 and its derivatives (Bezzubova, et al., Cell 89: 185–93 (1997), Takata, et al., EMBO Journal 17: 5497–508 (1998), Yamaguchi-Iwai, et al., Molecular & Cellular Biology 18: 6430–5 (1998)) were grown in RPMI containing 10% fetal calf serum and 1% chicken serum. The remaining cell lines were grown in DMEM with 10% fetal calf serum.
Toxicity assays in mammalian cell lines were performed using tritiated thymidine incorporation as a measure of the number of viable cells. […] Drug toxicity was measured as follows:
as §1
In the case of Topo II poisons, the drug/enzyme complex directly produces a DSB, which could occur in all phases of the cell cycle and can apparently be repaired by either DSB repair pathway. Topo I poisons, however, create a single strand break that is converted to a DSB by passage of a replication fork during ongoing DNA synthesis (D'Arpa, et al., Cancer Research 50: 6919–24 (1990), Hsiang, et al., Cancer Research 49: 5077–82 (1989), Holm, et al., Cancer Research 49: 6365–8 (1989)). It has been proposed that DSB's created in this context can only be repaired by homologous recombination, additionally requiring proteins involved in sister chromatid cohesion (Castano, et al., Genes & Development 10: 2564–76 (1996), Castano, et al., Nucleic Acids Research 24: 2404–10 (1996), Walowsky, et al., Journal of Biological Chemistry 274: 7302–8 (1999)).

Structure (SMILES) | effectiveness of 96 hour exposure relative to four hour exposure (Rat1a fibroblasts) | toxicity with a two hour exposure (Rat1a fibroblasts) | toxicity of four hour versus six hour exposure (Rat1a fibroblasts) | sensitivity of NHEJ-deficient (hdf1) mutant compared with wild-type [1] | effect of loss of KU70 on toxicity [2] | effect of loss of homologous recombination (RAD52 or RAD54) on toxicity [2]
O=c1c(Cl)c(Cl)cnn1CCCl [compound IIa] | three- to five-fold | nearly full toxicity | equally effective | indistinguishable from that of wild-type | unaffected by loss of KU70 | only marginally affected
O=C(CCl)Nc1ccc(C(=O)N/N=C/c2ccc(Cl)cc2)cc1 [compound Ia] | three- to five-fold | nearly full toxicity | equally effective | indistinguishable from that of wild-type | unaffected by loss of KU70 | only marginally affected
